Laboratory results taken from ChEMBL document CHEMBL1138572, “The synthesis of N-phenoxyethyl-1-substituted-1,2,3,4-tetrahydroisoquinolines and their alpha1-adrenoceptor blocking activity” (Eur J Med Chem, 2009).

molecular target: T1, Adrenergic receptor alpha-1 (Rattus norvegicus, UniProt P15823+P23944+P43140); assay: Antagonist activity at alpha1 adrenoceptor in Sprague-Dawley rat aorta assessed as inhibition of norepinephrine-induced contraction treated 30 mins before norepinephrine challenge
T1 sequence (P15823 whole entry): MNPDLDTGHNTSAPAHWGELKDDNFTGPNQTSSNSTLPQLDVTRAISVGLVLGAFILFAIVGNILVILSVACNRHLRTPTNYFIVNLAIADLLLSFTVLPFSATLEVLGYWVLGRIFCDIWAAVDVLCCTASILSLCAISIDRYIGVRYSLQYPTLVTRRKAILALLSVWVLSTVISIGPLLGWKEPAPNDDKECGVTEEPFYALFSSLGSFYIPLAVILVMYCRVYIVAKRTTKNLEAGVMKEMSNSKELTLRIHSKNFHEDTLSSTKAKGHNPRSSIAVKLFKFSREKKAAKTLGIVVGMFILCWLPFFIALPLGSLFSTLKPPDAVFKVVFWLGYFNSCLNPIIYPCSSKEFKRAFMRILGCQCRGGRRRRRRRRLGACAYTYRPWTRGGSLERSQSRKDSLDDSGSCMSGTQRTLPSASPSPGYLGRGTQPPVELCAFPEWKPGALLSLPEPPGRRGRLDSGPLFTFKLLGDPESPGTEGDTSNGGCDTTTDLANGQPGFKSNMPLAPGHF
T1 sequence (P23944 whole entry): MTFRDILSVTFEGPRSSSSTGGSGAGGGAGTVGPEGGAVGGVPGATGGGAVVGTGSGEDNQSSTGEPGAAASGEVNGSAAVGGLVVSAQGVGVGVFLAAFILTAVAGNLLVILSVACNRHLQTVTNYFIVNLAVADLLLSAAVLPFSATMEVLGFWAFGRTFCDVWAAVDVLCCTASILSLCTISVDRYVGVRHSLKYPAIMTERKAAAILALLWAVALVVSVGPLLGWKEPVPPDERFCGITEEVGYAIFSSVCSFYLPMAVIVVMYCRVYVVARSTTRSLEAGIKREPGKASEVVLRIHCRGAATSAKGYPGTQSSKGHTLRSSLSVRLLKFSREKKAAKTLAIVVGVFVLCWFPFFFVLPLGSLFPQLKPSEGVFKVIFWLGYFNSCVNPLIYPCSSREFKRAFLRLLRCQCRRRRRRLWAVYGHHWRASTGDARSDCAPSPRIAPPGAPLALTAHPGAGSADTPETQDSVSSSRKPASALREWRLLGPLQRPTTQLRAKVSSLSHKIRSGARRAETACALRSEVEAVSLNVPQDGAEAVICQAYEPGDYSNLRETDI
T1 sequence (P43140 whole entry): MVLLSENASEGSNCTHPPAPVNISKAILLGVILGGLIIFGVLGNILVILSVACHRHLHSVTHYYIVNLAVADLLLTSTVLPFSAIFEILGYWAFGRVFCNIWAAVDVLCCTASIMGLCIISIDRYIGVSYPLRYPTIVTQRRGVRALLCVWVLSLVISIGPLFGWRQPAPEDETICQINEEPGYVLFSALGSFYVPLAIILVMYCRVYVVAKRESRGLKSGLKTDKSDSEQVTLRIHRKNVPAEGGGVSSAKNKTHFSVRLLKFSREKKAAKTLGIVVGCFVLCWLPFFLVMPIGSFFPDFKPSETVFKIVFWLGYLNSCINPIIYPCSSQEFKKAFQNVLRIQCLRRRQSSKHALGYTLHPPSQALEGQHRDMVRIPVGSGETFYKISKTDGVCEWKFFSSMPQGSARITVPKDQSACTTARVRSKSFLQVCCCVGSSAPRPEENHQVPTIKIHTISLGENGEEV

pA2	Structure (SMILES)
8.11	COc1ccc2c(c1)C(c1ccccc1[N+](=O)[O-])N(CCOc1ccccc1)CC2 (stereo not drawn)
9.01	COc1cc2c(cc1OC)C(c1ccccc1[N+](=O)[O-])N(CCOc1ccccc1)CC2 (stereo not drawn)
8.33	COc1cc2c(cc1OC)C(c1ccccc1NCCOc1ccccc1)N(CCOc1ccccc1)CC2 (stereo not drawn)
7.66	COc1cc2c(cc1OC)C(c1ccccc1N)N(CCOc1ccccc1)CC2 (stereo not drawn)
5.46	Nc1ccccc1C1c2ccccc2CCN1CCOc1ccccc1 (stereo not drawn)
7.51	COc1ccc(N)c(C2c3cc(OC)c(OC)cc3CCN2CCOc2ccccc2)c1 (stereo not drawn)
8.34	COc1ccc(NCCOc2ccccc2)c(C2c3cc(OC)c(OC)cc3CCN2CCOc2ccccc2)c1 (stereo not drawn)
7.71	c1ccc(OCCNc2ccccc2C2c3ccccc3CCN2CCOc2ccccc2)cc1 (stereo not drawn)
6.72	COc1ccc2c(c1)C(c1ccccc1NCCOc1ccccc1)N(CCOc1ccccc1)CC2 (stereo not drawn)
7.94	O=[N+]([O-])c1ccccc1C1c2ccccc2CCN1CCOc1ccccc1 (stereo not drawn)
8.46	COc1ccc([N+](=O)[O-])c(C2c3cc(OC)c(OC)cc3CCN2CCOc2ccccc2)c1 (stereo not drawn)
8.23	COc1cc2c(cc1OC)C(Cc1ccccc1)N(CCOc1ccccc1)CC2 (stereo not drawn)
7.36	COc1ccc2c(c1)C(c1ccccc1N)N(CCOc1ccccc1)CC2 (stereo not drawn)
